Values after ≈ are worked out from the molar mass of the structure shown. Like-named read-outs stand apart in the source and are kept apart here. Each block holds one molecule with its values, some of them ahead of it.
Legend:
[1] = system: A. baumanii 13301 (ESBL strain); assay: Agar dilution MIC (CLSI); assay type: cell-based; details: A. baumanii 13301; for MIC: Acinetobacter baumannii
Procedure: (§1) In a typical study, overnight grown bacterial cultures were diluted appropriately and inoculated on the agar media containing doubling dilutions of the antibiotic. Observation for growth or no growth was performed after 16-20 hours of incubation at 35±2° C. in ambient air.

[2] = system: A. baumanii 13304 (ESBL strain); assay: Agar dilution MIC (CLSI); assay type: cell-based; details: A. baumanii 13304; for MIC: Acinetobacter baumannii
Procedure: as §1

[3] = system: A. baumanii 13305 (ESBL strain); assay: Agar dilution MIC (CLSI); assay type: cell-based; details: A. baumanii 13305; for MIC: Acinetobacter baumannii
Procedure: as §1

[4] = system: A. baumanii S-3 (ESBL strain); assay: Agar dilution MIC (CLSI); assay type: cell-based; details: A. baumanii S-3; for MIC: Acinetobacter baumannii
Procedure: as §1

[5] = system: A. baumanii S-4 (ESBL strain); assay: Agar dilution MIC (CLSI); assay type: cell-based; details: A. baumanii S-4
Procedure: as §1

[6] = system: A. baumanii S-8 (ESBL strain); assay: Agar dilution MIC (CLSI); assay type: cell-based; details: A. baumanii S-8; for MIC: Acinetobacter baumannii
Procedure: as §1

[7] = system: A. baumanii S-10 (ESBL strain); assay: Agar dilution MIC (CLSI); assay type: cell-based; details: A. baumanii S-10; for MIC: Acinetobacter baumannii
Procedure: as §1

[8] = system: A. baumanii S-15 (ESBL strain); assay: Agar dilution MIC (CLSI); assay type: cell-based; details: A. baumanii S-15
Procedure: as §1

ESBL strains = assay: Agar dilution MIC (CLSI), text summary over the strains; assay type: cell-based, A. baumanii
Procedure: as §1

[9] = NXL-104 4 mcg/ml + Sulbactam 8 mcg/ml
[10] = NXL-104 6 mcg/ml + Sulbactam 6 mcg/ml
[11] = NXL-104 8 mcg/ml + Sulbactam 4 mcg/ml
[12] = NXL-104 4 to 8 mcg/ml, read-out: MIC of beta-lactam in presence of NXL-104 (4 to 8 mcg/ml)
[13] = NXL-104 4 mcg/ml + Sulbactam 4 mcg/ml

MIC of beta-lactam with NXL-104 (4 mcg/ml) + Sulbactam (4 mcg/ml) [1]: <0.06 µg/mL
MIC of beta-lactam with NXL-104 (4 mcg/ml) + Sulbactam (8 mcg/ml) [1]: <0.06 µg/mL
MIC of beta-lactam with NXL-104 (6 mcg/ml) + Sulbactam (6 mcg/ml) [1]: <0.06 µg/mL
MIC of beta-lactam with NXL-104 (8 mcg/ml) + Sulbactam (4 mcg/ml) [1]: <0.06 µg/mL
MIC of beta-lactam with NXL-104 (4 mcg/ml) + Sulbactam (4 mcg/ml) [2]: <0.06 µg/mL
MIC of beta-lactam with NXL-104 (4 mcg/ml) + Sulbactam (8 mcg/ml) [2]: <0.06 µg/mL
MIC of beta-lactam with NXL-104 (6 mcg/ml) + Sulbactam (6 mcg/ml) [2]: <0.06 µg/mL
MIC of beta-lactam with NXL-104 (8 mcg/ml) + Sulbactam (4 mcg/ml) [2]: <0.06 µg/mL
MIC of beta-lactam with NXL-104 (4 mcg/ml) + Sulbactam (4 mcg/ml) [3]: <0.06 µg/mL
MIC of beta-lactam with NXL-104 (4 mcg/ml) + Sulbactam (8 mcg/ml) [3]: <0.06 µg/mL
MIC of beta-lactam with NXL-104 (6 mcg/ml) + Sulbactam (6 mcg/ml) [3]: <0.06 µg/mL
MIC of beta-lactam with NXL-104 (8 mcg/ml) + Sulbactam (4 mcg/ml) [3]: <0.06 µg/mL
MIC of beta-lactam in presence of Sulbactam (4 to 8 mcg/ml) [3]: 4 µg/mL
MIC of beta-lactam with NXL-104 (4 mcg/ml) + Sulbactam (8 mcg/ml) [4]: 4 µg/mL
MIC of beta-lactam with NXL-104 (6 mcg/ml) + Sulbactam (6 mcg/ml) [4]: 1 µg/mL
MIC of beta-lactam with NXL-104 (8 mcg/ml) + Sulbactam (4 mcg/ml) [4]: 0.5 µg/mL
MIC of beta-lactam with NXL-104 (4 mcg/ml) + Sulbactam (8 mcg/ml) [5, 9]: 4 µg/mL
MIC of beta-lactam with NXL-104 (6 mcg/ml) + Sulbactam (6 mcg/ml) [5, 10]: 1 µg/mL
MIC of beta-lactam with NXL-104 (8 mcg/ml) + Sulbactam (4 mcg/ml) [5, 11]: 0.5 µg/mL
MIC of beta-lactam with NXL-104 (4 mcg/ml) + Sulbactam (8 mcg/ml) [6]: 8 µg/mL
MIC of beta-lactam with NXL-104 (6 mcg/ml) + Sulbactam (6 mcg/ml) [6]: 0.5 µg/mL
MIC of beta-lactam with NXL-104 (8 mcg/ml) + Sulbactam (4 mcg/ml) [6]: 0.5 µg/mL
MIC of beta-lactam with NXL-104 (4 mcg/ml) + Sulbactam (8 mcg/ml) [7]: 8 µg/mL
MIC of beta-lactam with NXL-104 (6 mcg/ml) + Sulbactam (6 mcg/ml) [7]: <0.03 µg/mL
MIC of beta-lactam with NXL-104 (8 mcg/ml) + Sulbactam (4 mcg/ml) [7]: <0.03 µg/mL
MIC of beta-lactam with NXL-104 (4 mcg/ml) + Sulbactam (8 mcg/ml) [8, 9]: 8 µg/mL
MIC of beta-lactam with NXL-104 (6 mcg/ml) + Sulbactam (6 mcg/ml) [8, 10]: 0.12 µg/mL
MIC of beta-lactam with NXL-104 (8 mcg/ml) + Sulbactam (4 mcg/ml) [8, 11]: 0.5 µg/mL
SMILES: CO/N=C(\C(=O)N[C@@H]1C(=O)N2C(C(=O)[O-])=C(C[N+]3(C)CCCC3)CS[C@H]12)c1csc(N)n1 [Cefepime, cefepime]

MIC of beta-lactam with NXL-104 (4 mcg/ml) + Sulbactam (4 mcg/ml) [1]: <0.06 µg/mL
MIC of beta-lactam with NXL-104 (4 mcg/ml) + Sulbactam (8 mcg/ml) [1]: <0.06 µg/mL
MIC of beta-lactam with NXL-104 (6 mcg/ml) + Sulbactam (6 mcg/ml) [1]: <0.06 µg/mL
MIC of beta-lactam with NXL-104 (8 mcg/ml) + Sulbactam (4 mcg/ml) [1]: <0.06 µg/mL
MIC of beta-lactam in presence of Sulbactam (4 to 8 mcg/ml) ([1]; Sulbactam 4 to 8 mcg/ml): >32 µg/mL
MIC [1, 12]: > 32 µg/mL
MIC ([1]; alone, read-out: MIC): > 32 µg/mL
MIC of beta-lactam with NXL-104 (4 mcg/ml) + Sulbactam (4 mcg/ml) [2]: <0.06 µg/mL
MIC of beta-lactam with NXL-104 (4 mcg/ml) + Sulbactam (8 mcg/ml) [2]: <0.06 µg/mL
MIC of beta-lactam with NXL-104 (6 mcg/ml) + Sulbactam (6 mcg/ml) [2]: <0.06 µg/mL
MIC of beta-lactam with NXL-104 (8 mcg/ml) + Sulbactam (4 mcg/ml) [2]: <0.06 µg/mL
MIC of beta-lactam in presence of Sulbactam (4 to 8 mcg/ml) ([2]; Sulbactam 4 to 8 mcg/ml): 32 µg/mL
MIC [2, 12]: 16 µg/mL
MIC ([2]; alone, read-out: MIC): 32 µg/mL (≈ 62.2 µM)
MIC of beta-lactam with NXL-104 (4 mcg/ml) + Sulbactam (4 mcg/ml) [3]: <0.06 µg/mL
MIC of beta-lactam with NXL-104 (4 mcg/ml) + Sulbactam (8 mcg/ml) [3]: <0.06 µg/mL
MIC of beta-lactam with NXL-104 (6 mcg/ml) + Sulbactam (6 mcg/ml) [3]: <0.06 µg/mL
MIC of beta-lactam with NXL-104 (8 mcg/ml) + Sulbactam (4 mcg/ml) [3]: <0.06 µg/mL
MIC of beta-lactam in presence of Sulbactam (4 to 8 mcg/ml) [3]: 8 µg/mL
MIC [3, 12]: 16 µg/mL
MIC ([3]; alone, read-out: MIC): 16 µg/mL (≈ 31.1 µM)
MIC of beta-lactam with NXL-104 (4 mcg/ml) + Sulbactam (4 mcg/ml) [4, 13]: 16 µg/mL
MIC of beta-lactam with NXL-104 (4 mcg/ml) + Sulbactam (8 mcg/ml) [4]: 4 µg/mL
MIC of beta-lactam with NXL-104 (6 mcg/ml) + Sulbactam (6 mcg/ml) [4]: 1 µg/mL
MIC of beta-lactam with NXL-104 (8 mcg/ml) + Sulbactam (4 mcg/ml) [4]: 0.5 µg/mL
MIC of beta-lactam in presence of Sulbactam (4 to 8 mcg/ml) ([4]; Sulbactam 4 to 8 mcg/ml): >32 µg/mL
MIC [4, 12]: 32 µg/mL
MIC ([4]; alone, read-out: MIC): > 32 µg/mL
MIC of beta-lactam with NXL-104 (4 mcg/ml) + Sulbactam (4 mcg/ml) [6, 13]: 16 µg/mL
MIC of beta-lactam with NXL-104 (4 mcg/ml) + Sulbactam (8 mcg/ml) [6]: 8 µg/mL
MIC of beta-lactam with NXL-104 (6 mcg/ml) + Sulbactam (6 mcg/ml) [6]: 0.5 µg/mL
MIC of beta-lactam with NXL-104 (8 mcg/ml) + Sulbactam (4 mcg/ml) [6]: 0.5 µg/mL
MIC of beta-lactam in presence of Sulbactam (4 to 8 mcg/ml) ([6]; Sulbactam 4 to 8 mcg/ml): 32 µg/mL
MIC [6, 12]: 16 µg/mL
MIC ([6]; alone, read-out: MIC): 32 µg/mL (≈ 62.2 µM)
MIC of beta-lactam with NXL-104 (4 mcg/ml) + Sulbactam (4 mcg/ml) [7, 13]: 16 µg/mL
MIC of beta-lactam with NXL-104 (4 mcg/ml) + Sulbactam (8 mcg/ml) [7]: 8 µg/mL
MIC of beta-lactam with NXL-104 (6 mcg/ml) + Sulbactam (6 mcg/ml) [7]: <0.03 µg/mL
MIC of beta-lactam with NXL-104 (8 mcg/ml) + Sulbactam (4 mcg/ml) [7]: <0.03 µg/mL
MIC of beta-lactam in presence of Sulbactam (4 to 8 mcg/ml) ([7]; Sulbactam 4 to 8 mcg/ml): >32 µg/mL
MIC [7, 12]: 16 µg/mL
MIC ([7]; alone, read-out: MIC): > 32 µg/mL
MIC in presence of sulbactam and NXL-104, lowest value ("as low as") (ESBL strains): less than 0.03 mcg/ml
SMILES: CO/N=C(\C(=O)N[C@@H]1C(=O)N2C(C(=O)[O-])=C(C[n+]3cccc4c3CCC4)CS[C@H]12)c1csc(N)n1 [Cefpirome, cefpirome]
